Measured values as given in patent publication US10709907B2, “Taurine and aloe synergistic anti-irritant compositions and methods” (Colgate-Palmolive Company, priority 2016, dated 2020).

Assays:
[1] = tested on: In vitro skin samples (MatTek EpiDerm); test: Cytotoxicity Assay (MTT), cell viability of reconstructed human epidermis; type: cell-based; settings: for MTT (% cell viability): untreated Control = 100
Procedure: (§1) Two in vitro reconstructed human epidermis models were employed to assess the relative irritation potential of selected test samples, the Cytotoxicity Assay (MTT) and the Irritation Assay (IL-1α Release Assay), described below.
Cytotoxicity Assay (MTT):
Cell damage was evaluated by assessing mitochondrial metabolic activity using 3-[4,5-dimethylthiazol-2-yl]-2,5-diphenyltetrazolium bromide (MTT-reduction assay) upon exposure to the test sample. MTT solution was prepared as 1.0 mg/ml in Phosphate Buffered Saline (PBS) just before usage. In vitro skin samples (MatTek EpiDerm) were treated topically with the test sample for 1 hour in a tissue culture incubator. Following the incubation, skin samples were washed with PBS and placed in 24 well tissue culture plates, and 500 μl of the MTT solutions were added to each well and incubated at 37° C. for 2 hours. The cell survivability was analyzed by measuring the ability of the cell's mitochondria to reduce the colorless MTT to a colored formazan crystalline end product. The reaction was terminated by the removal of the MTT solution from the wells. Addition of 1.0 mL of 0.04M HCl in isopropanol to each well was used to dissolve the intracellular MTT formazan crystals. The contents of each well were mixed gently in an orbital shaker at room temperature for 1 hour and the absorbency at 570 nm was measured by an ELISA plate reader (SpectraMax M5 Multi-Mode Microplate Readers, Molecular Devices, California).

[2] = tested on: IL-1α release, 3D EpiDerm skin models (SIT-200 skin irritation model); test: Irritation Assay (IL-1α Release Assay) by ELISA; type: cell-based, human; settings: untreated Control = 100
From the text: as §1
Irritation Assay (IL-1α Release Assay):
To document the skin irritation of Antiperspirant Active Ingredients, we have conducted in vitro experiments using 3D EpiDerm skin models (SIT-200 skin irritation model, MatTek Corporation, Ashland, Mass. 01721). In vitro skin samples were treated topically with the test compound for 1 hour in tissue culture incubator. Following the incubation, skin samples were washed with PBS and placed in a culture medium and continue to incubate for 24 hours. Cell culture media was collected for IL-1α release assay. Higher the IL-1a release means higher the irritation potential. IL-1α release was analyzed by ELISA assay kit (Invitrogen, Grand Island, N.Y. 14072) and (R&D Systems, Minneapolis, Minn. 55413).

| Compound | MTT (% cell viability) ([1]; Example 1, topical treatment 1 hour) [%] | reduction of cell viability compared to untreated tissue (MTT) ([1]; Example 2) | MTT (% cell viability) ([1]; Example 2, topical treatment 1 hour) [%] | IL-1α (percentage of the test value for the Control) ([2]; Example 1, topical treatment 1 hour, then 24 hours in culture medium) [%] | IL-1α (percentage compared to untreated tissue) ([2]; Example 2, topical treatment 1 hour, then 24 hours in culture medium) [%] | MTT (% cell viability) ([1]; Example 3, formulated samples) [%] | IL-1α (percentage compared to untreated tissue) ([2]; Example 3, formulated samples) [%] |
| --- | --- | --- | --- | --- | --- | --- | --- |
| O.O.O.O.O.O.[Al+3].[Cl-].[Cl-].[Cl-] [14% AlCl3, Aluminum Chloride Hexaaqua] | 78 | 15-20% | 84 | 345 | 594 | – | – |
| O.O.O.O.O.O.[Al+3].[Cl-].[Cl-].[Cl-] [12% AlCl3, Aluminum Chloride Hexaaqua] | – | – | – | – | – | 99 | 234 |
